From patent publication US8802700B2 (Vertex Pharmaceuticals Incorporated, priority 2010, dated 2014) come the findings set out here.

Bounds are passed on as bounds.

T1 sequence (P13569 with tags, fused parts or gaps DEL508-508): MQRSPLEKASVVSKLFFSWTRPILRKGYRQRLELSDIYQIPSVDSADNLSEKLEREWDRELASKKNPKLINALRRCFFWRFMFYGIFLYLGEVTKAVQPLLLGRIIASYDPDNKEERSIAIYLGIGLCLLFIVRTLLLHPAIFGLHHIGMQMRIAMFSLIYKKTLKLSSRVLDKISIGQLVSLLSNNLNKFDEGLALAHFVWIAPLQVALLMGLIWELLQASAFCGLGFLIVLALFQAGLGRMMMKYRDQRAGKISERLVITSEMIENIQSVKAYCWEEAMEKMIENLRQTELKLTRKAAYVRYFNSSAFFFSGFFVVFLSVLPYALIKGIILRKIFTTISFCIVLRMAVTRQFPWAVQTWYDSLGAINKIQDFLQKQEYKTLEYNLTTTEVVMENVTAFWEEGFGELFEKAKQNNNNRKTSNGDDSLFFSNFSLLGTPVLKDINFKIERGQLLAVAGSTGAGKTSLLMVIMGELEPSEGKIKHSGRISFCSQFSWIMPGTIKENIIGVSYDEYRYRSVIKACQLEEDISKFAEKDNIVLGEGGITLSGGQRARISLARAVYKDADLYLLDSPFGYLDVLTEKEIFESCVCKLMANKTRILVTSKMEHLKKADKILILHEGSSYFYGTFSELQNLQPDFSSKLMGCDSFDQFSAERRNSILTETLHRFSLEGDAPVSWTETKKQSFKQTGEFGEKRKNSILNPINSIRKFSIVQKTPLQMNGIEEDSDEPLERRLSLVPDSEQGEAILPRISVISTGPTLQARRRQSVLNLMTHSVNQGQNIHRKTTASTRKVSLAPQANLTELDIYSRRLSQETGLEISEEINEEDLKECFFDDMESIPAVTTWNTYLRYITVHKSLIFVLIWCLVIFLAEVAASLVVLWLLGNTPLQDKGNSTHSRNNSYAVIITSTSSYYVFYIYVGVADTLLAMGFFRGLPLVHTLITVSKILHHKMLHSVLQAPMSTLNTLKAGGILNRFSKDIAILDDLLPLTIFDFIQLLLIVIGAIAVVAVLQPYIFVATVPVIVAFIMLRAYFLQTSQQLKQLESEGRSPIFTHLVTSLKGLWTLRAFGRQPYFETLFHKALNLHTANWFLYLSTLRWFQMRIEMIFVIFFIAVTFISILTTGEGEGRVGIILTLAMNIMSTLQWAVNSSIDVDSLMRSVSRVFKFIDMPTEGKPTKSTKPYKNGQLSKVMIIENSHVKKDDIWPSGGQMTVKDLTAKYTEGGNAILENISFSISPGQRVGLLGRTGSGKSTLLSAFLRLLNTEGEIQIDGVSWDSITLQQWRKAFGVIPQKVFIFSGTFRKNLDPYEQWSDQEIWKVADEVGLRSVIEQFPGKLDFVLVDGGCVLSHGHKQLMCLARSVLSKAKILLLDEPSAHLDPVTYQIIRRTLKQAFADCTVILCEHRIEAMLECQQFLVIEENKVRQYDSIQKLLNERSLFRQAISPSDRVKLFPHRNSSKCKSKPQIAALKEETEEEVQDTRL

The test has as its target T1, ΔF508-CFTR (Homo sapiens, UniProt P13569, DEL508-508).
T1 construct: expressed in transfected cells
The test can be described thus: Membrane potential optical assay (FRET voltage-sensor dyes, VIPR), identification of potentiator compounds. It counts as cell-based. Particulars: Table 3; assay not given; read-out: % Activity (% Efficacy, relative efficacy). In outline: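 Potentiator screen measured membrane potential via FRET between CC2-DMPE donor and DiSBAC2(3), read on VIPR II. Compound went in with the first addition of chloride-free gluconate bath; cells were ΔF508-CFTR-expressing NIH3T3 mouse fibroblasts, temperature-corrected at 27 °C for 24 h.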
For `Cc1c[nH]c2cccc(NC(=O)c3c[nH]c4ccccc4c3=O)c12` [Compound 338, N-(3-methyl-1H-indol-4-yl)-4-oxo-1H-quinoline-3-carboxamide], the Emax fell in the range of 25 to 100%.

Turning to `CCOC(=O)NCC(C)(C)c1ccc(NC(=O)c2c[nH]c3ccccc3c2=O)cc1` [Compound 119, [2-methyl-2-[4-[(4-oxo-1H-quinolin-3-yl)carbonylamino]phenyl]-propyl]aminoformic acid ethyl ester], the Emax was 25 to 100%.

As for `O=C(Nc1ccccc1)c1c[nH]c2ccccc2c1=O` [Compound 215, 4-Oxo-N-phenyl-1H-quinoline-3-carboxamide], the Emax was 25 to 100%.

For the compound `O=C(Nc1ccc2c(C3CCCC3)c[nH]c2c1)c1c[nH]c2ccccc2c1=O` [Compound 186, N-(3-cyclopentyl-1H-indol-6-yl)-4-oxo-1H-quinoline-3-carboxamide], the Emax is 25 to 100%.

Take `O=C(Nc1cccc2nsnc12)c1c[nH]c2ccccc2c1=O` [Compound 54, 4-oxo-N-(8-thia-7,9-diazabicyclo[4.3.0]nona-2,4,6,9-tetraen-5-yl)-1H-quinoline-3-carboxamide]: the Emax was < 25%.

Turning to `Cc1cccc(-c2ccccc2NC(=O)c2c[nH]c3ccccc3c2=O)c1` [Compound 52, N-[2-(m-tolyl)phenyl]-4-oxo-1H-quinoline-3-carboxamide], the Emax lay in the range of 25 to 100%.

Consider `O=C(Nc1ccc(S(=O)(=O)Nc2ccccn2)cc1)c1c[nH]c2ccccc2c1=O` [Compound 21, 4-oxo-N-[4-(2-pyridylsulfamoyl)phenyl]-1H-quinoline-3-carboxamide], for which the Emax is < 25%.

`O=C(Nc1cccn2ncnc12)c1c[nH]c2ccccc2c1=O` [Compound 146, 4-oxo-N-(1,7,9-triazabicyclo[4.3.0]nona-2,4,6,8-tetraen-5-yl)-1H-quinoline-3-carboxamide]: the Emax was < 25%.

As for `COC(=O)Oc1c(NC(=O)c2c[nH]c3ccccc3c2=O)cc(F)cc1C(C)(C)C` [Compound 288, N-(5-fluoro-2-methoxycarbonyloxy-3-tert-butyl-phenyl)-4-oxo-1H-quinoline-3-carboxamide], the Emax was in the range of 25 to 100%.

In the case of `CCC(CC)(c1cc(F)c(NC(=O)c2cnc3ccccc3c2O)cc1O)C(C)(C)C` [Compound 153, N-[4-(1,1-diethyl-2,2-dimethyl-propyl)-2-fluoro-5-hydroxy-phenyl]-4-hydroxy-quinoline-3-carboxamide], the Emax lay within 25 to 100%.

For the compound `Cc1cccc2[nH]cc(C(=O)Nc3ccc(N4CCC(C)(C)C4)cc3C(F)(F)F)c(=O)c12` [Compound 578, N-[4-(3,3-dimethylpyrrolidin-1-yl)-2-(trifluoromethyl)phenyl]-5-methyl-4-oxo-1H-quinoline-3-carboxamide], the Emax was in the range of 25 to 100%.

On to `COc1cc(C#N)c(NC(=O)c2c[nH]c3ccccc3c2=O)cc1OC` [Compound 106, N-(2-cyano-4,5-dimethoxy-phenyl)-4-oxo-1H-quinoline-3-carboxamide], for which the Emax is < 25%.

Regarding `CC(C)(C)c1cc(F)c(NC(=O)c2c[nH]c3ccc(Cl)cc3c2=O)cc1O` [Compound 561, 6-chloro-N-(2-fluoro-5-hydroxy-4-tert-butyl-phenyl)-4-oxo-1H-quinoline-3-carboxamide], the Emax lay within 25 to 100%.

As to `CCCc1ccc(NC)cc1NC(=O)c1c[nH]c2ccccc2c1=O` [Compound 356, N-(5-methylamino-2-propyl-phenyl)-4-oxo-1H-quinoline-3-carboxamide], the Emax lay within 25 to 100%.

Regarding `CC(C)(C)c1cc2cc[nH]c2cc1NC(=O)c1c[nH]c2c(C(F)(F)F)cccc2c1=O` [Compound 559, 4-oxo-N-(5-tert-butyl-1H-indol-6-yl)-8-(trifluoromethyl)-1H-quinoline-3-carboxamide], the Emax was < 25%.

On to `CC(C)(C)CC(=O)Nc1ccc(C(C)(C)C)c(NC(=O)c2c[nH]c3ccccc3c2=O)c1` [Compound 196, N-[5-(3,3-dimethylbutanoylamino)-2-tert-butyl-phenyl]-4-oxo-1H-quinoline-3-carboxamide], for which the Emax lay within 25 to 100%.

As to `O=C(Nc1ccc(Cl)cn1)c1c[nH]c2ccccc2c1=O` [Compound 170, N-(5-chloro-2-pyridyl)-4-oxo-1H-quinoline-3-carboxamide], the Emax was < 25%.

Consider `O=C(Nc1ccc(N2CCCC2)cc1C(F)(F)F)c1c[nH]c2ccccc2c1=O` [Compound 658, 4-oxo-N-[4-pyrrolidin-1-yl-2-(trifluoromethyl)phenyl]-1H-quinoline-3-carboxamide], for which the Emax lay in the range of 25 to 100%.

Turning to `Cc1cccc2[nH]cc(C(=O)Nc3ccc(N4CC[C@H](F)C4)cc3C(F)(F)F)c(=O)c12` [Compound 626, (S)-N-(4-(3-fluoropyrrolidin-1-yl)-2-(trifluoromethyl)phenyl)-5-methyl-4-oxo-1,4-dihydroquinoline-3-carboxamide], the Emax lay in the range of 25 to 100%.

For `CC(=O)c1ccc(-c2ccccc2NC(=O)c2c[nH]c3ccccc3c2=O)s1` [Compound 174, N-[2-(5-acetyl-2-thienyl)phenyl]-4-oxo-1H-quinoline-3-carboxamide], the Emax is 25 to 100%.

On to `O=C(Nc1ccc(OCc2ccccc2)cc1)c1c[nH]c2ccccc2c1=O` [Compound 189, N-(4-benzyloxyphenyl)-4-oxo-1H-quinoline-3-carboxamide], for which the Emax lay in the range of 25 to 100%.

As to `CC(C)Cc1ccc(-c2ccccc2NC(=O)c2c[nH]c3ccccc3c2=O)cc1` [Compound 391, N-[2-(4-isobutylphenyl)phenyl]-4-oxo-1H-quinoline-3-carboxamide], the Emax lay within 25 to 100%.

In the case of `CC(C)(C)c1ccccc1NC(=O)c1c[nH]c2ccccc2c1=O` [Compound 90, 4-oxo-N-(2-tert-butylphenyl)-1H-quinoline-3-carboxamide], the Emax lay in the range of 25 to 100%.

For the compound `COc1ccc(NC(=O)c2c[nH]c3ccccc3c2=O)cn1` [Compound 162, N-(6-methoxy-3-pyridyl)-4-oxo-1H-quinoline-3-carboxamide], the Emax is < 25%.

Turning to `COc1nc2ccccc2c(OC)c1C(=O)Nc1cc(NC(=O)OC(C)(C)C)ccc1C(C)(C)C` [Compound 39, [3-[(2,4-dimethoxy-3-quinolyl)carbonylamino]-4-tert-butyl-phenyl]aminoformic acid tert-butyl ester], the Emax is 25 to 100%.

`CC(C)(C)c1cc(C(C)(C)C)c(NC(=O)c2c[nH]c3c(F)cccc3c2=O)cc1O` [Compound 687, 8-fluoro-N-(5-hydroxy-2,4-ditert-butyl-phenyl)-4-oxo-1H-quinoline-3-carboxamide]: the Emax was in the range of 25 to 100%.

Turning to `O=C(Nc1ccc(C2CCCCC2)c(O)c1)c1c[nH]c2ccc(F)cc2c1=O` [Compound 651, N-(4-cyclohexyl-3-hydroxy-phenyl)-6-fluoro-4-oxo-1H-quinoline-3-carboxamide], the Emax lay in the range of 25 to 100%.

Turning to `CC(C)(C)c1ccc(NC(=O)c2c[nH]c3cccc(O)c3c2=O)cc1F` [Compound 491, N-(3-fluoro-4-tert-butyl-phenyl)-5-hydroxy-4-oxo-1H-quinoline-3-carboxamide], the Emax lay within 25 to 100%.

Take `CC(C)c1ccc(NC(=O)c2c[nH]c3ccc(F)cc3c2=O)c(C(F)(F)F)c1` [Compound 557, 6-fluoro-N-[4-isopropyl-2-(trifluoromethyl)phenyl]-4-oxo-1H-quinoline-3-carboxamide]: the Emax lay within 25 to 100%.
